Measurements published in patent US20090312335A1 (priority 2005, published 2009).
pIC50: −log10 of the molar value.

System: HIV replication
Assay: Inhibition of acute HIV infection with HeLa P4-2 cells, single cycle infectivity ("vertical") assay
Type: cell-based
Conditions: Human immunodeficiency virus 1, HeLaP4-2
Description: The inhibitory activity of the compounds of the present invention may be measured by assays known in the art. […] Preferred compounds have IC50 values of ≦1 micromolar in this integrase assay. […] 1992, 66, 2232 for measuring the inhibition of acute HIV infection with HeLa P4-2 cells in a single cycle infectivity assay.
An assay for measuring the inhibition of acute HIV infection with HeLa P4-2 cells in a single cycle infectivity assay (alternatively referred to as the “vertical” assay) was conducted in accordance with Joyce, J. G., et al., J. Biol. Chem., 2002, 277, 45811, Hazuda, D. J. et al., Science, 2000, 287, 646, and Kimpton, J. et al, J. Virol. 1992, 66, 2232.

Structure (SMILES): CN1CCn2cc(-c3nnc(Cc4ccc(F)cc4)o3)c(O)c2C1=O [Example 2, 7-[5-(4-Fluorobenzyl)-1,3,4-oxadiazol-2-yl]-8-hydroxy-2-methyl-3,4-dihydropyrrolo[1,2-a]pyrazin-1(2H)-one]
- pIC50: > 4.46

Structure (SMILES): CN1CCn2cc(-c3nnc(Cc4ccc(F)cc4)[nH]3)c(O)c2C1=O [Example 3]
- pIC50: > 4.46

Structure (SMILES): CN1CCn2cc(-c3nnc(Cc4ccc(F)cc4)s3)c(O)c2C1=O [Example 1, 7-[5-(4-Fluorobenzyl)-1,3,4-thiadiazol-2-yl]-8-hydroxy-2-methyl-3,4-dihydropyrrolo[1,2-a]pyrazin-1(2H)-one]
- pIC50: > 4.46

Structure (SMILES): CN1C[C@H](c2ccccc2)n2nc(-c3nnc(Cc4ccc(F)cc4)o3)c(O)c2C1=O [Example 5, (7S)-2-[5-(4-Fluorobenzyl)-1,3,4-oxadiazol-2-yl]-3-hydroxy-5-methyl-7-phenyl-6,7-dihydropyrazolo[1,5a]pyrazin-4(5H)-one]
- pIC50: > 4.46

Structure (SMILES): CN1C[C@H](c2ccccc2)n2nc(-c3nnc(Cc4ccc(F)cc4)s3)c(O)c2C1=O [Example 4, (7S)-2-[5-(4-Fluorobenzyl)-1,3,4-thiadiazol-2-yl]-3-hydroxy-5-methyl-7-phenyl-6,7-dihydropyrazolo[1,5a]pyrazin-4(5H)-one]
- pIC50: > 4.46
